Results on 2 substances are retold here after patent publication US12478680B2, “Hydrogels with biodegradable crosslinking” (ProLynx LLC, priority 2011, dated 2025).

For this data set the following is noted: pH 7.4.

For the substance carbonic anhydrase, the “t1/2 for release into solution” value is recorded as 24 min. The value for myoglobin was approximately 20 min.
